Results on 20 compounds are retold here after PubChem BioAssay (NCI).

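A five-concentration, 48-hour dose response in 96-well plates underlies each endpoint, interpolated linearly between surrounding concentrations. At the GI50, growth is halved. The concentration for full growth arrest is given as TGI.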

Test systems include MALME-3M melanoma; SK-MEL-2 melanoma; HCT-116 colon; KM12 colon; HCT-15 colon; NCI-H522 lung; RXF 393 renal; PC-3 prostate; SF-539 CNS; CCRF-CEM leukemia.
Holding throughout (assay): inhibition of tumour cell growth, NCI panel, 48 h

On to `COc1cc(/C=N\N(C)C)cc(/C=N/N(C)C)c1O`, for which the TGI in the assay on MALME-3M melanoma was 56 µM; in the assay with SK-MEL-2 melanoma, 28.1 µM; in the assay on HCT-116 colon, above 100 µM; in the assay on KM12 colon, above 100 µM; with HCT-15 colon, above 100 µM; in the assay with NCI-H522 lung it was above 100 µM. Also, the TGI in the assay with RXF 393 renal was above 100 µM; in the assay on PC-3 prostate it was 96.2 µM; with SF-539 CNS it was 37.1 µM; in the assay with CCRF-CEM leukemia, 72.4 µM.

In the case of `COC(=O)c1cc(C)ccc1C1CN=NC12Cc1ccc(C)cc1C2=O` (stereo not drawn), the TGI in the assay with MALME-3M melanoma is above 100 µM; with SK-MEL-2 melanoma it was above 100 µM; with HCT-116 colon, above 100 µM; in the assay with KM12 colon, above 100 µM; in the assay on HCT-15 colon, above 100 µM; with NCI-H522 lung it was 98.9 µM. Further, the TGI in the assay on RXF 393 renal, with PC-3 prostate, with SF-539 CNS and in the assay with CCRF-CEM leukemia was above 100 µM throughout.

For the compound `CCC/C=C/c1cc2c(cc1O)CC[C@@H]1[C@@H]2CC[C@]2(C)[C@@H](O)CC[C@@H]12`, the TGI with MALME-3M melanoma came to 30.3 µM; with SK-MEL-2 melanoma, 32.1 µM; in the assay on HCT-116 colon, 31.6 µM; in the assay with KM12 colon, 32.6 µM; with HCT-15 colon, 39.9 µM; in the assay on NCI-H522 lung, 35.5 µM. In addition, the TGI came to 33.2 µM with RXF 393 renal, 31 µM with PC-3 prostate, 35.7 µM in the assay on SF-539 CNS and 32.8 µM in the assay on CCRF-CEM leukemia. For the same compound, the GI50 in the assay with HCT-116 colon was 17.2 µM; with SF-539 CNS, 20.2 µM.

In the case of `CCN(CC)CCn1nc(N)c2nc3ccccc3nc21`, the TGI with MALME-3M melanoma, in the assay with SK-MEL-2 melanoma, in the assay with HCT-116 colon, with KM12 colon, in the assay on HCT-15 colon and in the assay with NCI-H522 lung was above 100 µM each time. Besides, the TGI in the assay with RXF 393 renal, in the assay with PC-3 prostate, in the assay on SF-539 CNS and in the assay on CCRF-CEM leukemia was above 100 µM each time.

Consider `Cc1ccc([N+](=O)[O-])cc1S(=O)(=O)Nc1ccc(C2=NN(c3ccc([N+](=O)[O-])cc3[N+](=O)[O-])C(c3cccs3)C2)cc1` (stereo not drawn), for which the TGI is 94.7 µM with MALME-3M melanoma; 32.7 µM in the assay with SK-MEL-2 melanoma; 29.3 µM with HCT-116 colon; 55.6 µM with KM12 colon; 32.7 µM in the assay with HCT-15 colon; 39 µM with NCI-H522 lung. Further, the TGI was 54.3 µM with RXF 393 renal, above 100 µM in the assay with PC-3 prostate, 71.2 µM in the assay on SF-539 CNS and above 100 µM in the assay on CCRF-CEM leukemia.

In the case of `CC(=O)c1sc2c(c1OC(=O)c1ccco1)c(=O)n(-c1ccccc1)c(=S)n2-c1ccccc1`, the TGI in the assay with MALME-3M melanoma is 37.9 µM; with SK-MEL-2 melanoma, 39.2 µM; in the assay with HCT-116 colon, 41.1 µM; with KM12 colon, 48.5 µM; in the assay on HCT-15 colon, 41.9 µM; with NCI-H522 lung, 39.7 µM. Moreover, the TGI was determined as 28.2 µM in the assay with RXF 393 renal, 64.2 µM in the assay on PC-3 prostate, 20.6 µM with SF-539 CNS and 43.5 µM in the assay with CCRF-CEM leukemia.

For the compound `Cc1cc2c(cc1C(=O)CCC(=O)O)CC1(C2)Cc2cc(C)c(C(=O)CCC(=O)O)cc2C1`, the TGI with MALME-3M melanoma, with SK-MEL-2 melanoma, with HCT-116 colon, in the assay with KM12 colon, in the assay on HCT-15 colon and with NCI-H522 lung was above 100 µM in each case. The TGI in the assay with RXF 393 renal, in the assay on PC-3 prostate, in the assay on SF-539 CNS and in the assay with CCRF-CEM leukemia was above 100 µM throughout.

With `CCOC(=O)C1(Cc2ccccc2)C=CN(C(=O)c2ccccc2)C=C1`, the TGI is 88.9 µM in the assay on MALME-3M melanoma; 49.6 µM in the assay with SK-MEL-2 melanoma; above 100 µM in the assay on HCT-116 colon; above 100 µM in the assay on KM12 colon; above 100 µM in the assay on HCT-15 colon; 76 µM in the assay on NCI-H522 lung. Also, the TGI in the assay with RXF 393 renal is above 100 µM; in the assay on PC-3 prostate, above 100 µM; in the assay with SF-539 CNS, above 100 µM; in the assay with CCRF-CEM leukemia it was 61.5 µM.

For the compound `c1ccc(-c2cn3c(nc4ccccc43)c(-c3ccccc3)n2)cc1`, the TGI was above 100 µM in the assay with MALME-3M melanoma; above 62.5 µM in the assay on SK-MEL-2 melanoma; above 100 µM in the assay on HCT-116 colon; above 100 µM in the assay on KM12 colon; above 100 µM in the assay on HCT-15 colon; above 100 µM in the assay with NCI-H522 lung. The TGI with RXF 393 renal was above 54.3 µM; in the assay with PC-3 prostate it was above 100 µM; with SF-539 CNS it was above 100 µM; in the assay on CCRF-CEM leukemia, above 100 µM.

With `CC(C)(C)/C(=N\Nc1nc2ccccc2[nH]1)c1ccccn1`, the TGI in the assay with MALME-3M melanoma is 61.5 µM; with SK-MEL-2 melanoma, above 100 µM; in the assay on HCT-116 colon, 78 µM; in the assay on KM12 colon, above 100 µM; in the assay with HCT-15 colon, above 100 µM; in the assay with NCI-H522 lung it was above 100 µM. Moreover, the TGI in the assay with RXF 393 renal, in the assay with PC-3 prostate, in the assay with SF-539 CNS and in the assay with CCRF-CEM leukemia was above 100 µM each time.

As for `OC1(c2ccccc2)C2CCN(CC2)C1CN1CCOCC1` (stereo not drawn), the TGI in the assay on MALME-3M melanoma, in the assay with SK-MEL-2 melanoma, in the assay on HCT-116 colon, in the assay on KM12 colon, in the assay with HCT-15 colon and in the assay with NCI-H522 lung was above 100 µM throughout. Also, the TGI with RXF 393 renal, with PC-3 prostate, with SF-539 CNS and in the assay with CCRF-CEM leukemia was above 100 µM each time.

Consider `Ic1ccc2c(c1)N(c1ccccc1)c1cc(N=c3ccc4nc5ccc(I)cc5n(-c5ccccc5)c-4c3)ccc1N2`, for which the TGI was above 100 µM in the assay with MALME-3M melanoma; above 100 µM in the assay with SK-MEL-2 melanoma; above 100 µM in the assay with HCT-116 colon; above 100 µM in the assay on KM12 colon; above 100 µM in the assay on HCT-15 colon; 69 µM in the assay with NCI-H522 lung. The TGI in the assay with RXF 393 renal, with PC-3 prostate, in the assay on SF-539 CNS and in the assay with CCRF-CEM leukemia was above 100 µM throughout.

`COc1ccc2c(c1)-c1nc(=S)n(CCCN(C)C)c3ccc([N+](=O)[O-])c(c13)N2`: the TGI is 2.33 µM in the assay on MALME-3M melanoma; 31.6 µM with SK-MEL-2 melanoma; 2.93 µM in the assay on HCT-116 colon; 6.31 µM in the assay with KM12 colon; 17.1 µM with HCT-15 colon; 2.98 µM in the assay with NCI-H522 lung. The TGI is 1.87 µM in the assay on RXF 393 renal, 17.4 µM in the assay with PC-3 prostate, 6.08 µM in the assay with SF-539 CNS and 1.41 µM in the assay on CCRF-CEM leukemia.

In the case of `O=S(=O)(SC1=NCCN1)c1ccc2ccccc2c1`, the TGI was above 100 µM in the assay with MALME-3M melanoma; 80 µM with SK-MEL-2 melanoma; 62.4 µM with HCT-116 colon; 44.1 µM in the assay on KM12 colon; 71 µM in the assay with HCT-15 colon; 46.3 µM in the assay on NCI-H522 lung. Also, the TGI in the assay on RXF 393 renal is above 100 µM; in the assay with PC-3 prostate, above 100 µM; with SF-539 CNS, 63.7 µM; with CCRF-CEM leukemia, 68 µM.

Regarding `O=C(O)c1ccccc1/C=N/NC1=NCCN1`, the TGI in the assay with MALME-3M melanoma, in the assay with SK-MEL-2 melanoma, in the assay with HCT-116 colon, in the assay with KM12 colon, with HCT-15 colon and in the assay with NCI-H522 lung was above 100 µM throughout. For the same compound, the TGI in the assay with RXF 393 renal, with PC-3 prostate, in the assay with SF-539 CNS and with CCRF-CEM leukemia was above 100 µM each time.

Turning to `O=c1cc(N2CCNCC2)nc2ccccn12`, the TGI in the assay on MALME-3M melanoma, in the assay with SK-MEL-2 melanoma, in the assay on HCT-116 colon, in the assay with KM12 colon, in the assay on HCT-15 colon and in the assay with NCI-H522 lung was above 100 µM in each case. Further, the TGI with RXF 393 renal, with PC-3 prostate, in the assay with SF-539 CNS and in the assay with CCRF-CEM leukemia was above 100 µM each time.

As to `N#CC1C(=O)N(c2ccccc2)NC12OC(=O)c1ccncc12` (stereo not drawn), the TGI in the assay on MALME-3M melanoma, in the assay on SK-MEL-2 melanoma, in the assay on HCT-116 colon, with HCT-15 colon, with NCI-H522 lung and in the assay on RXF 393 renal was above 20 µM each time. For the same compound, the TGI in the assay with PC-3 prostate, in the assay on SF-539 CNS and with CCRF-CEM leukemia was above 20 µM throughout.

As for `c1ccc(-c2nc3ccccc3n3c(CN4CCCCC4)nnc23)cc1`, the TGI in the assay on MALME-3M melanoma, with SK-MEL-2 melanoma, in the assay on HCT-116 colon, with HCT-15 colon, in the assay with NCI-H522 lung and in the assay on RXF 393 renal was above 100 µM in each case. In addition, the TGI with PC-3 prostate, in the assay on SF-539 CNS and in the assay with CCRF-CEM leukemia was above 100 µM in each case.

Take `CN(C)c1ccc(/C=C2/NC(=S)NC2=O)cc1`: the TGI in the assay with MALME-3M melanoma, with SK-MEL-2 melanoma, in the assay with HCT-116 colon, in the assay with HCT-15 colon, in the assay on NCI-H522 lung and in the assay with RXF 393 renal was above 100 µM throughout. Further, the TGI in the assay with PC-3 prostate is above 100 µM; with SF-539 CNS it was above 100 µM; in the assay with CCRF-CEM leukemia, 80.8 µM.

Consider `CCC(C)(C)C1CCC2c3c([nH]c4ccccc34)C3C(=O)N(c4ccc(OC)cc4)C(=O)C3C2C1` (stereo not drawn), for which the TGI is 63 µM in the assay with MALME-3M melanoma; 40.3 µM in the assay on SK-MEL-2 melanoma; 37.2 µM in the assay on HCT-116 colon; 12.2 µM in the assay with KM12 colon; above 100 µM with HCT-15 colon; 20.6 µM in the assay on NCI-H522 lung. For the same compound, the TGI was above 100 µM in the assay with RXF 393 renal, 26.6 µM in the assay on PC-3 prostate and 33.5 µM with SF-539 CNS.
